13 compounds from patent US20240246960A1 (adMare Therapeutics Society, priority 2021, published 2024) can be followed below.

A value given as a limit tells only on which side of the number the result lay.

The nature of series [1]: Microsomal stability assay, mouse liver microsomes. The following applies: for microsomal CLint at 0.1 uM: male, CD-1, mouse, liver microsomes, pH 7.4, Microsomal Stability Mouse Clint, 0.1 mg/mL microsomes, 0.1 uM compound.
Procedure: Mouse liver microsomes were obtained from a pool of 250 or more male CD-1 mice. […] Final microsomal concentration was 0.1 mg/mL and test compound concentration was 0.1 uM with a maximum of 0.01% DMSO. The test compound was pre-incubated with pooled liver microsomes in phosphate buffer (pH 7.4) for 5 min in a 37° C. shaking water bath. The reaction was initiated by adding NADPH-generating system and incubated for 0, 15, 30, 45, and 60 min. The reaction was stopped by transferring the incubation mixture to acetonitrile/methanol. Samples were then mixed and centrifuged. Supernatants were used for HPLC-MS/MS analysis. The HPLC system consisted of a binary LC pump with autosampler, a C-18 column, and a gradient. Peak areas corresponding to the test compound were recorded. The compound remaining was calculated by comparing the peak area at each time point to time zero. The half-life was calculated from the slope of the initial linear range of the logarithmic curve of compound remaining (%) vs. time, assuming first order kinetics. In addition, the intrinsic clearance (Clint) was calculated from the half-life.
Series [2] is described as follows: Hepatocyte stability assay, human hepatocytes. In kind it is in vitro ADME. The conditions noted are these: for hepatocyte CLint at 1 uM: both sexes, human, cryopreserved hepatocytes, pH 7.3, 0.7 million cells per mL, 1 uM compound. In outline:
(§1)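 Pooled cryopreserved hepatocytes (male CD-1 mouse, or mixed-gender human donors; ≥10 each) at 0.7 million viable cells/mL in Krebs-Henseleit buffer pH 7.3, with 1 uM compound (≤0.01% DMSO). Incubated up to 2 h at 37 °C/5% CO2, quenched with acetonitrile; parent compound followed by HPLC-MS/MS peak area.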

Another series has as its target T1, DNA-PK (Homo sapiens, UniProt P78527).
T1 construct: purchased Invitrogen PR9107A
Briefly: DNA-PK Assay for Biochemical Enzymatic Inhibition (ADP Glo Kinase assay). The conditions noted are these: Table 1. In outline: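 Human DNA-PK (25 ng) preincubated 15 min with compounds (ten three-fold dilutions) in HEPES pH 7.5, MgCl2, KCl, calf thymus DNA buffer, then substrate 434.4 μM and ATP 64.4 μM (final) for 60 min at room temperature. ADP-Glo luminescence; percent inhibition fitted by four-parameter regression for IC50.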
A general note: In ADP-Glo the light output rises with the ADP produced.

Series [3] can be described thus: Microsomal stability assay, human liver microsomes. In kind it is in vitro ADME. The following applies: for microsomal CLint at 0.1 uM: both sexes, human, liver microsomes, pH 7.4, 0.1 mg/mL microsomes, 0.1 uM compound. As for the experimental part: Samples were then mixed and centrifuged. Supernatants were used for HPLC-MS/MS analysis. […] Peak areas corresponding to the test compound were recorded.
A general note: Liver microsomes are vesicles of endoplasmic reticulum, rich in cytochrome P450 enzymes.

Series [4] can be described thus: Hepatocyte stability assay, mouse hepatocytes. In kind it is in vitro ADME. The following applies: for hepatocyte CLint at 1 uM: male, CD-1, mouse, cryopreserved hepatocytes, pH 7.3, 0.7 million cells per mL, 1 uM compound. In outline: as §1

Broadly, the microsomal CLint is the rate of metabolic loss divided by the concentration. A lower microsomal CLint goes with slow turnover. For orientation: hepatocyte CLint means the rate of metabolic loss divided by the concentration. Low readings indicate slow turnover, high ones rapid turnover. A word on the IC50: it is the point on the concentration scale where inhibition reaches its midpoint. Consider `O=C(N[C@H]1CC[C@@H](Oc2nc(N3CCOCC3)cc3ncccc23)CC1)c1ccnnc1` [Compound 121, N-((1s,4s)-4-((7-morpholino-1,6-naphthyridin-5-yl)oxy)cyclohexyl)pyridazine-4-carboxamide], for which, in series [1], the “Microsomal Stability (mouse) % rem. 60 min” value is given as “H (% remaining = 75-100%)” and the microsomal CLint at 0.1 uM was below 116 µL/min/mg. For the same compound, in series [2], the “Hepatocyte Stability (human) % rem. 120 min” value is “G (% remaining = 50-75%)” and the intrinsic metabolic clearance (hepatocyte CLint) at 1 uM is below 8.2 µL/min/1e6 cells. The IC50 at DNA-PK fell in the range of 0.5 to 1 nM. In addition, in series [3], the “Microsomal Stability (human) % rem. 60 min” value is reported as “G (% remaining = 50-75%)” and the microsomal CLint at 0.1 uM is below 116 µL/min/mg. Also, in series [4], the “Hepatocyte Stability (mouse) % rem. 120 min” value was “G (% remaining = 50-75%)” and the hepatocyte CLint at 1 uM was below 8.2 µL/min/1e6 cells.

Consider `O=C(N[C@H]1CC[C@@H](Oc2nc(N3CCOCC3)cc3ncccc23)CC1)c1ccncc1` [Compound 113, N-((1s,4s)-4-((7-morpholino-1,6-naphthyridin-5-yl)oxy)cyclohexyl)isonicotinamide], for which, in series [1], the “Microsomal Stability (mouse) % rem. 60 min” value is on record as “F (% remaining = 25-50%)” and the intrinsic clearance (microsomal CLint) at 0.1 uM is above 116 µL/min/mg. For the same compound, in series [2], the “Hepatocyte Stability (human) % rem. 120 min” value was “G (% remaining = 50-75%)” and the hepatocyte CLint at 1 uM was below 8.2 µL/min/1e6 cells. Besides, the IC50 at DNA-PK was below 0.5 nM. Further, in series [3], the “Microsomal Stability (human) % rem. 60 min” value is “F (% remaining = 25-50%)” and the microsomal CLint at 0.1 uM is above 116 µL/min/mg. Moreover, in series [4], the “Hepatocyte Stability (mouse) % rem. 120 min” value is on record as “G (% remaining = 50-75%)” and the hepatocyte CLint at 1 uM is below 8.2 µL/min/1e6 cells.

Turning to `O=C(N[C@H]1CC[C@@H](Oc2nc(N3CCOCC3)cc3ncccc23)CC1)c1cc[nH]c1` [Compound 140, N-((1s,4s)-4-((7-morpholino-1,6-naphthyridin-5-yl)oxy)cyclohexyl)-1H-pyrrole-3-carboxamide], in series [1], the “Microsomal Stability (mouse) % rem. 60 min” value is listed as “G (% remaining = 50-75%)” and the intrinsic metabolic clearance (microsomal CLint) at 0.1 uM is below 116 µL/min/mg. Moreover, in series [2], the “Hepatocyte Stability (human) % rem. 120 min” value is reported as “H (% remaining = 75-100%)” and the intrinsic clearance (hepatocyte CLint) at 1 uM is below 8.2 µL/min/1e6 cells. In addition, the IC50 on DNA-PK is below 0.5 nM. In series [3], the “Microsomal Stability (human) % rem. 60 min” value was “F (% remaining = 25-50%)” and the microsomal CLint at 0.1 uM is above 116 µL/min/mg. Moreover, in series [4], the “Hepatocyte Stability (mouse) % rem. 120 min” value is given as “G (% remaining = 50-75%)” and the hepatocyte CLint at 1 uM is below 8.2 µL/min/1e6 cells.

In the case of `O=C(N[C@H]1CC[C@@H](Oc2nc(N3CCOCC3)cc3ncccc23)CC1)c1c[nH]cn1` [Compound 144, N-((1s,4s)-4-((7-morpholino-1,6-naphthyridin-5-yl)oxy)cyclohexyl)-1H-imidazole-4-carboxamide], in series [1], the “Microsomal Stability (mouse) % rem. 60 min” value was “G (% remaining = 50-75%)” and the microsomal CLint at 0.1 uM is below 116 µL/min/mg. Further, in series [2], the “Hepatocyte Stability (human) % rem. 120 min” value is given as “H (% remaining = 75-100%)” and the hepatocyte CLint at 1 uM is below 8.2 µL/min/1e6 cells. Besides, the IC50 at DNA-PK lay within 0.5 to 1 nM. Moreover, in series [3], the “Microsomal Stability (human) % rem. 60 min” value is recorded as “G (% remaining = 50-75%)” and the microsomal CLint at 0.1 uM was below 116 µL/min/mg. Further, in series [4], the “Hepatocyte Stability (mouse) % rem. 120 min” value is “H (% remaining = 75-100%)” and the intrinsic metabolic clearance (hepatocyte CLint) at 1 uM was below 8.2 µL/min/1e6 cells.

For the compound `CS(=O)(=O)Nc1cnc(N[C@H]2CC[C@@H](Oc3nc(N4CCOCC4)cc4ncccc34)CC2)nc1` [Compound 44, N-(2-(((1s,4s)-4-((7-morpholino-1,6-naphthyridin-5-yl)oxy)cyclohexyl)amino)pyrimidin-5-yl)methanesulfonamide], in series [2], the “Hepatocyte Stability (human) % rem. 120 min” value is “H (% remaining = 75-100%)” and the hepatocyte CLint at 1 uM was below 8.2 µL/min/1e6 cells. On DNA-PK, the IC50 is below 0.5 nM. In series [4], the “Hepatocyte Stability (mouse) % rem. 120 min” value is “G (% remaining = 50-75%)” and the hepatocyte CLint at 1 uM was below 8.2 µL/min/1e6 cells.

Consider `Nc1cnc(N[C@H]2CC[C@@H](Oc3nc(N4CCOCC4)cc4ncccc34)CC2)nc1` [Compound 43, N2-((1s,4s)-4-((7-morpholino-1,6-naphthyridin-5-yl)oxy)cyclohexyl)pyrimidine-2,5-diamine], for which, in series [2], the “Hepatocyte Stability (human) % rem. 120 min” value is “G (% remaining = 50-75%)” and the hepatocyte CLint at 1 uM was below 8.2 µL/min/1e6 cells. Further, at DNA-PK, the IC50 is below 0.5 nM. Besides, in series [4], the “Hepatocyte Stability (mouse) % rem. 120 min” value is recorded as “F (% remaining = 25-50%)” and the hepatocyte CLint at 1 uM is above 8.2 µL/min/1e6 cells.

For `CS(=O)(=O)Nc1cnc2cc(N3CCOCC3)nc(O[C@H]3CC[C@@H](Nc4ncccn4)CC3)c2c1` [Compound 185, N-(7-morpholino-5-(((1s,4s)-4-(pyrimidin-2-ylamino)cyclohexyl)oxy)-1,6-naphthyridin-3-yl)methanesulfonamide], in series [1], the “Microsomal Stability (mouse) % rem. 60 min” value is listed as “G (% remaining = 50-75%)” and the microsomal CLint at 0.1 uM was below 116 µL/min/mg. Moreover, in series [2], the “Hepatocyte Stability (human) % rem. 120 min” value was “H (% remaining = 75-100%)” and the hepatocyte CLint at 1 uM is below 8.2 µL/min/1e6 cells. Besides, the IC50 at DNA-PK was below 0.5 nM. In series [3], the “Microsomal Stability (human) % rem. 60 min” value was “F (% remaining = 25-50%)” and the microsomal CLint at 0.1 uM is above 116 µL/min/mg. Besides, in series [4], the “Hepatocyte Stability (mouse) % rem. 120 min” value is “G (% remaining = 50-75%)” and the hepatocyte CLint at 1 uM was below 8.2 µL/min/1e6 cells.

In the case of `Cn1cnc(N[C@H]2CC[C@@H](Oc3nc(N4CCOCC4)cc4ncccc34)CC2)n1` [Compound 31, 1-methyl-N-((1s,4s)-4-((7-morpholino-1,6-naphthyridin-5-yl)oxy)cyclohexyl)-1H-1,2,4-triazol-3-amine], in series [2], the “Hepatocyte Stability (human) % rem. 120 min” value was “F (% remaining = 25-50%)” and the hepatocyte CLint at 1 uM is above 8.2 µL/min/1e6 cells. Besides, at DNA-PK, the IC50 is below 0.5 nM. Moreover, in series [4], the “Hepatocyte Stability (mouse) % rem. 120 min” value is “H (% remaining = 75-100%)” and the hepatocyte CLint at 1 uM was below 8.2 µL/min/1e6 cells.

On to `Cn1ccc2nc(N[C@H]3CC[C@@H](Oc4nc(N5CCOCC5)cc5ncccc45)CC3)ncc21` [Compound 87, 5-Methyl-N-((1s,4s)-4-((7-morpholino-1,6-naphthyridin-5-yl)oxy)cyclohexyl)-5H-pyrrolo[3,2-d]pyrimidin-2-amine], for which, in series [2], the “Hepatocyte Stability (human) % rem. 120 min” value is on record as “G (% remaining = 50-75%)” and the intrinsic clearance (hepatocyte CLint) at 1 uM was below 8.2 µL/min/1e6 cells. For the same compound, the half-maximal inhibitory concentration (IC50) on DNA-PK was below 0.5 nM. In series [4], the “Hepatocyte Stability (mouse) % rem. 120 min” value is listed as “F (% remaining = 25-50%)” and the hepatocyte CLint at 1 uM is above 8.2 µL/min/1e6 cells.

In the case of `c1cnc2cc(N3CCOCC3)nc(O[C@H]3CC[C@@H](Nc4ncnc5occc45)CC3)c2c1` [Compound 82, N-((1s,4s)-4-((7-morpholino-1,6-naphthyridin-5-yl)oxy)cyclohexyl)furo[2,3-d]pyrimidin-4-amine], in series [2], the “Hepatocyte Stability (human) % rem. 120 min” value is on record as “F (% remaining = 25-50%)” and the intrinsic metabolic clearance (hepatocyte CLint) at 1 uM was above 8.2 µL/min/1e6 cells. Moreover, the IC50 on DNA-PK is below 0.5 nM. Also, in series [4], the “Hepatocyte Stability (mouse) % rem. 120 min” value was “E (% remaining = 0-25%)” and the hepatocyte CLint at 1 uM is above 8.2 µL/min/1e6 cells.

With `Cc1nc(N[C@H]2CC[C@@H](Oc3nc(N4CCOCC4)cc4ncccc34)CC2)c2occc2n1` [Compound 81, 2-methyl-N-((1s,4s)-4-((7-morpholino-1,6-naphthyridin-5-yl)oxy)cyclohexyl)furo[3,2-d]pyrimidin-4-amine], in series [2], the “Hepatocyte Stability (human) % rem. 120 min” value is “G (% remaining = 50-75%)” and the hepatocyte CLint at 1 uM is below 8.2 µL/min/1e6 cells. On DNA-PK, the IC50 was below 0.5 nM. Also, in series [4], the “Hepatocyte Stability (mouse) % rem. 120 min” value is “F (% remaining = 25-50%)” and the hepatocyte CLint at 1 uM was above 8.2 µL/min/1e6 cells.

With `FC(F)c1ccnc2cc(N3CCOCC3)nc(O[C@H]3CC[C@@H](Nc4ncccn4)CC3)c12` [Compound 22, N-((1s,4s)-4-((4-(Difluoromethyl)-7-morpholino-1,6-naphthyridin-5-yl)oxy)cyclohexyl)pyrimidin-2-amine], in series [2], the “Hepatocyte Stability (human) % rem. 120 min” value is “E (% remaining = 0-25%)” and the hepatocyte CLint at 1 uM was above 8.2 µL/min/1e6 cells. Moreover, on DNA-PK, the IC50 was below 0.5 nM. Moreover, in series [4], the “Hepatocyte Stability (mouse) % rem. 120 min” value was “F (% remaining = 25-50%)” and the hepatocyte CLint at 1 uM is above 8.2 µL/min/1e6 cells.

With `O=C(N[C@H]1CC[C@@H](Oc2nc(N3CCOCC3)cc3ncccc23)CC1)c1ncco1` [Compound 142, N-((1s,4s)-4-((7-morpholino-1,6-naphthyridin-5-yl)oxy)cyclohexyl)oxazole-2-carboxamide], in series [1], the “Microsomal Stability (mouse) % rem. 60 min” value was “G (% remaining = 50-75%)” and the microsomal CLint at 0.1 uM was below 116 µL/min/mg. Further, in series [2], the “Hepatocyte Stability (human) % rem. 120 min” value is on record as “H (% remaining = 75-100%)” and the hepatocyte CLint at 1 uM was below 8.2 µL/min/1e6 cells. Besides, the IC50 at DNA-PK was in the range of 0.5 to 1 nM. Further, in series [3], the “Microsomal Stability (human) % rem. 60 min” value is given as “F (% remaining = 25-50%)” and the microsomal CLint at 0.1 uM is above 116 µL/min/mg. In series [4], the “Hepatocyte Stability (mouse) % rem. 120 min” value is “F (% remaining = 25-50%)” and the hepatocyte CLint at 1 uM is above 8.2 µL/min/1e6 cells.
